According to patent publication US12514938B2, “Fibroblast activation protein targeting peptides” (PERSPECTIVE THERAPEUTICS, INC., priority 2023, dated 2026):
*1 amine or outer side, *2 acyl side, *3 side chain or, on linkers, in order; H or OH if unused. Where a SMILES comes first, the peptide text is derived from it. Bridges are numbered along the chain shown (N, C = ends). The star is where a group is joined. X1 = NC(=O)CN1CCN(CC(=O)O)CCN(CC(=O)*)CCN(CC(=O)O)CC1; oXylylene = c1ccc(C[*:2])c(C[*:1])c1; PEG2 = NCCOCCOCCC(=O)O

Tests used:
[1] = target: T1, human PREP (Homo sapiens, UniProt P48147); test: Grating-coupled interferometry (GCI) binding kinetics
T1 sequence (P48147 1-710): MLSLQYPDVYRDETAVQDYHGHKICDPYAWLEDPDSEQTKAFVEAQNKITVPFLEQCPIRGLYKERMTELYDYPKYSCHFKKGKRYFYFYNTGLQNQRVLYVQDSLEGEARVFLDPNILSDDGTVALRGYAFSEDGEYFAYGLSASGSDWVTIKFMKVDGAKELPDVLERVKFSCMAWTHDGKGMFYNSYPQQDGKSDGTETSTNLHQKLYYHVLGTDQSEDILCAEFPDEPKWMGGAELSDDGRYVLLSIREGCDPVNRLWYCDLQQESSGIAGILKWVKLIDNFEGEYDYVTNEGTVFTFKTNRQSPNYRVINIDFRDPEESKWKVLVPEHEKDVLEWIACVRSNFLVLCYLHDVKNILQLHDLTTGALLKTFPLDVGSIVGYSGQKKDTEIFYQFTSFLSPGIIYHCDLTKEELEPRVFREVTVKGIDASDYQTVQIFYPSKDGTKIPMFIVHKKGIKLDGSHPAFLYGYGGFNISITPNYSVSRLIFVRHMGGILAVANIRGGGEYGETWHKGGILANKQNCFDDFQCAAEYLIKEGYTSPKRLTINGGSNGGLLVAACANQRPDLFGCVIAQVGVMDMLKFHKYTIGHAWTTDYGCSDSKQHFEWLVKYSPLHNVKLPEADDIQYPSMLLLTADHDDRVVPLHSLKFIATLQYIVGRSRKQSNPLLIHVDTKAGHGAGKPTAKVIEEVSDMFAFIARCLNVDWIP
Description: (§1) The enzyme inhibition assay was performed to determine inhibitor constant (i.e., Ki) values against human FAP, mouse FAP, human dipeptidyl peptidase 4 (DPPIV) and human prolyl endopeptidase (PREP). Z-GP-AMC was used as substrate for human FAP, mouse FAP and human PREP. GP-AMC was used as substrate for human DPPIV. To perform the assay, VMT-FAP-2-59 at varying concentrations (i.e. 10^−6 to 10^−12) were incubated with 5 ng hFAP, 5 ng mFAP, 2.5 ng DPPIV, or 5 ng PREP in a black 96-well plate for 10 minutes at RT on a shaker plate. The substrate was added to give a final concentration of 50 μM for Z-GP-AMC and GP-AMC. The total reaction volume per well was 100 μL The reaction was allowed to incubate at RT on a shaker plate for 1 hour protected from light, and then fluorescence was read with a BioTek Synergy LX plate reader at an ex/em (360/40 and 460/40). Experiments were performed in at least duplicate. Buffer only, buffer/enzymes, buffer/substrate and enzyme only were included as controls. Data was plotted in GraphPad Prism and non-linear regression used to calculate IC50 values. Binding kinetics (Kd) of VMT-FAP-2-59 against human FAP, human DPPIV and human PREP were also determined by grating-coupled interferometry (GCI). hFAP, hDPPIV and hPREP proteins were fixed on PCH (N=3) chips or PCP (N=2). […] On PCP chips, binding affinity of VMT-FAP-2-29 to hFAP was determined from 39 pM to 20 nM. Binding affinity to hDPPIV and hPREP was determined at concentration from 39 pM to 50 nM.

[2] = target: human DPPIV (Homo sapiens, UniProt P27487); test: as above
Chain of human DPPIV (P27487 whole entry): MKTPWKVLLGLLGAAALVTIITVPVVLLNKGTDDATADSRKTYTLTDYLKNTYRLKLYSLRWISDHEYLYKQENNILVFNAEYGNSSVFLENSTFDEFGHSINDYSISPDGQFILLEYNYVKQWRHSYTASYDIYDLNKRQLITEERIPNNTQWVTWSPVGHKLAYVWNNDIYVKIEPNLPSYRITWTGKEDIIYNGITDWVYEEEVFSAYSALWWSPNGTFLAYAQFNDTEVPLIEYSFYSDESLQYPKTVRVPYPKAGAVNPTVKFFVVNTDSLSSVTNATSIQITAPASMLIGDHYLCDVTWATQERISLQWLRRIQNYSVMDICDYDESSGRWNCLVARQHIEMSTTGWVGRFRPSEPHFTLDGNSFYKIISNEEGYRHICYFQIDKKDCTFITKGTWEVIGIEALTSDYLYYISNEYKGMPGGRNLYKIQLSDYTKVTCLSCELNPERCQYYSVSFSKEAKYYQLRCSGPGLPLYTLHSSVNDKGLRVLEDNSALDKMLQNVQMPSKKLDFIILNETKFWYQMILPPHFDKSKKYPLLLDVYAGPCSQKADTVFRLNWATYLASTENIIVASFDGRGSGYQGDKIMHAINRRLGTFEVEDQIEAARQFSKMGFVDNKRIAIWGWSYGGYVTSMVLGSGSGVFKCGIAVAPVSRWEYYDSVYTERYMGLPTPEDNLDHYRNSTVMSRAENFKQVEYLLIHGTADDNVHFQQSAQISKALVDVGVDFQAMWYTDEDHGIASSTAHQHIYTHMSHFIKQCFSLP
Description: as §1

[3] = target: T2, human FAP (Homo sapiens, UniProt Q12884); test: as above; settings: GCI on PCH/PCP chips
T2 sequence (Q12884 1-760): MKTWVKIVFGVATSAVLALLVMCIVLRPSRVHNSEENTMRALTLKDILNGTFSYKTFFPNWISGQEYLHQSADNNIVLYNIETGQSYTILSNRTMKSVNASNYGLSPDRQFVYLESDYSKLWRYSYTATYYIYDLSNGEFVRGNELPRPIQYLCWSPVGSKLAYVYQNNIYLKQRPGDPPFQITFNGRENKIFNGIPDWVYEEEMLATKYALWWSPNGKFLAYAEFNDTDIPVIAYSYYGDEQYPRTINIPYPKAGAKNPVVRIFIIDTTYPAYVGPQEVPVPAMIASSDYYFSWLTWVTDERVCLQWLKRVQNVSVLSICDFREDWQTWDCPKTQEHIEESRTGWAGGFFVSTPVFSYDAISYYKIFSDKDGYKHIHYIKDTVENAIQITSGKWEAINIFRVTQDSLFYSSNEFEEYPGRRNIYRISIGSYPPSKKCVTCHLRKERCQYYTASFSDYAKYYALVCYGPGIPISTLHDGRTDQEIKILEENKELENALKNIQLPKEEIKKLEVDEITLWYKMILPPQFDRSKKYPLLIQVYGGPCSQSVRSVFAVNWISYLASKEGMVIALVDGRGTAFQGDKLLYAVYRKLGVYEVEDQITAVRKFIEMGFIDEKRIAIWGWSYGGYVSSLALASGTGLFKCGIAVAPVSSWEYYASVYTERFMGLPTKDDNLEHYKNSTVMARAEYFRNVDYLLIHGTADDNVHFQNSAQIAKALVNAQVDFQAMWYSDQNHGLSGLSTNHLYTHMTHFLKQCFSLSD
Description: as §1

[4] = target: T3, human prolyl endopeptidase (PREP) (Homo sapiens, UniProt P48147); test: Enzyme inhibition assay, binding specificity of VMT-FAP-2-59 (Example 3); format: biochemical; settings: 50 μM Z-GP-AMC
T3 sequence (P48147 1-710): T1 sequence (P48147 1-710)
Description: as §1

[5] = target: T2, human FAP; test: as above; format: biochemical; settings: 50 μM Z-GP-AMC
Description: as §1

C[C@@H](O)[C@@H]1NC(=O)[C@@H](NC(=O)CCOCCOCCNC(=O)CN2CCN(CC(=O)O)CCN(CC(N)=O)CCN(CC(=O)O)CC2)CSCc2ccccc2CSC[C@@H](C(N)=O)NC(=O)[C@H](Cc2c[nH]c3ccccc23)NC(=O)[C@H](Cc2c[nH]c3ccccc23)NC(=O)[C@H](CCC(N)=O)NC(=O)[C@H](CCC(=O)O)NC(=O)[C@H](Cc2c[nH]c3ccccc23)NC(=O)[C@@H]2CCCN2C1=O [VMT-FAP-2-59, PSC-PEG2-[C(oXdB)TPWEQWWC]-NH2] ({X1-PEG2}-CTPWEQWWC-NH2; linker 1-9 via oXylylene)
Kd [1]: No binding
Kd [2]: No binding
Kd [3]: 2 nM
Ki [4]: 152 nM
Ki [5]: 0.4 nM
